Assay results reported in publication PMC4655142 (Neuropharmacology, 2015).
Like-named read-outs stand apart in the source and are kept apart here.

Assays:
[1] = system: C57Bl/6J mice; assay: Tolerance to acute nicotine after chronic treatment; format: in vivo; conditions: Mus musculus, ip
[2] = cited from earlier work
[3] = cited from earlier work; remark: listed apart in the source
[4] = cited from earlier work; remark: listed apart in the source
[5] = target: [125I]-epibatidine binding sites (α4β2-nAChR), cortex membranes (Mus musculus, UniProt O70174+Q9ERK7); assay: Inhibition of [125I]-epibatidine binding to cortex membranes; parameters: species or system C57Bl/6J mice
Chain of [125I]-epibatidine binding sites (α4β2-nAChR), cortex membranes (O70174 31-629): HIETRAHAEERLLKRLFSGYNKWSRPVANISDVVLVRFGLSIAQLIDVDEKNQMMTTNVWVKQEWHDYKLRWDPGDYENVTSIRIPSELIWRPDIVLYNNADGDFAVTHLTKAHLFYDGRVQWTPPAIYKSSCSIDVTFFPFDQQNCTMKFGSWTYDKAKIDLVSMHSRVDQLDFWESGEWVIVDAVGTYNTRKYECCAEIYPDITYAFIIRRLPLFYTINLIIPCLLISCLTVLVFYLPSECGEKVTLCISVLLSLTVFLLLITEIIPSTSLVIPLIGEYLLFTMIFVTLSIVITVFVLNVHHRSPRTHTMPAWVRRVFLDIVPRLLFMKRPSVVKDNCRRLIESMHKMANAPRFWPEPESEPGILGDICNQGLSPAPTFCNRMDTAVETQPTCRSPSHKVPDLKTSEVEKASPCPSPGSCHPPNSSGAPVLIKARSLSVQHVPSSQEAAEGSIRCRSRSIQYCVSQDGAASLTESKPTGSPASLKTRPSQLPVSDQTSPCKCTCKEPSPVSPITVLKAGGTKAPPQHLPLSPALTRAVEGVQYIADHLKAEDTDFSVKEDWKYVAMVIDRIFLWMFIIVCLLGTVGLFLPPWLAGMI
Chain of [125I]-epibatidine binding sites (α4β2-nAChR), cortex membranes (Q9ERK7 26-501): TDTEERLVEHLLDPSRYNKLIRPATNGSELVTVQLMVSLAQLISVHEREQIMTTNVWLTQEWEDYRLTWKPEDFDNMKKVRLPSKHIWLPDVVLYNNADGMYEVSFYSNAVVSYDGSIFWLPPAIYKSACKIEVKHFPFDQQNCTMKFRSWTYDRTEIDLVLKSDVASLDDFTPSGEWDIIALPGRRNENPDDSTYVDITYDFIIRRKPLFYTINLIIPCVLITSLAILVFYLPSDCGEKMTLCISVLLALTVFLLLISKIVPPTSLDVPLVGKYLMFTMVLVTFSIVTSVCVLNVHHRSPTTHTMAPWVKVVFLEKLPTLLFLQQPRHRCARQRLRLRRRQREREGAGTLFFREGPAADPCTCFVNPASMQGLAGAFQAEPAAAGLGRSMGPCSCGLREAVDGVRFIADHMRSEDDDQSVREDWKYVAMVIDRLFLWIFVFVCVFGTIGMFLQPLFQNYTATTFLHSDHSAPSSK

In the case of `CN1CCC[C@H]1c1cccnc1` [Nicotine], the ED50 ([1]; 24 h, read-out: ED50 of acute ip nicotine, Body temperature) is reported as 0.8 ± 0.05 mg/kg, the ED50 ([1]; 24 h, read-out: ED50 of acute ip nicotine, Open field) is reported as 0.6 ± 0.06 mg/kg and the ED50 ([1]; 24 h, read-out: ED50 of acute ip nicotine, Y-maze cross) is reported as 0.49 ± 0.04 mg/kg. It also gave an ED50 ([1]; 24 h, read-out: ED50 of acute ip nicotine, Y-maze rear) of 0.38 ± 0.03 mg/kg, an ED50 ([1]; read-out: ED50 of acute ip nicotine, Body temperature) of 0.88 ± 0.09 mg/kg and an ED50 ([1]; read-out: ED50 of acute ip nicotine, Open field) of 0.55 ± 0.06 mg/kg. For the same compound, the ED50 ([1]; read-out: ED50 of acute ip nicotine, Y-maze cross) was 0.47 ± 0.06 mg/kg, the ED50 ([1]; read-out: ED50 of acute ip nicotine, Y-maze rear) was 0.38 ± 0.05 mg/kg and the Plasma level ([2]; rat, sc infusion of 2.4 mg/kg/day, ref Rowell and Li, 1997) was 43 ng/mL. For the same compound, the Plasma level ([2]; rats, 0.8 mg/kg/day, ref Ghosheh et al, 2001) was 6.5 ng/mL, the Plasma level ([2]; rats, 6.0 mg/kg/day, ref Hussman, Turner et al, 2012, Doura et al, 2008) was 146 to 313 ng/mL and the Plasma level ([3]; mice, 12-24 mg/kg/day, ref Marks, Rowell et al., 2004, Matta et al, 2007) was 40 to 80 ng/mL. For the same compound, the Plasma level ([3]; mice, similar chronic treatment protocols, ref Marks, Rowell et al., 2004) was 40 to 80 ng/mL, the Plasma level ([3]; mouse, in vivo, sc, 1 mg/kg) was 160 ng/mL and the Plasma level ([4]; human smokers, pre-quit, smoking cessation trial, ref Dobrinas et al, 2011) was “up to 52 ng/ml”.
In the case of `c1cnc2cc3c(cc2n1)[C@@H]1CNC[C@H]3C1` [Varenicline], the “brain:plasma ratio” value ([2]; rats, ref Hussmann, Turner et al, 2012) is listed as 1.5, the Peak plasma level ([3]; mice, single oral dose of 3 mg (or ~120 mg/kg), ref Obach et al, 2006) is listed as 293 ng/mL and the Ki [5] is listed as 0.11 ± 0.01 nM. The Plasma level ([4]; humans taking varenicline, smoking cessation study, ref Dobrinas et al, 2011) was “up to 20 ng/ml”, the Plasma level ([4]; humans, single oral dose 1 mg (~[…]), ref Obach et al, 2006, Al-Haj et al, 2013) was 4 to 6 ng/mL and the “t ½” value ([4]; humans, ref Obach et al, 2006) was 17.6 h.
